{"source": "patent US7452870B2", "about": "“Drug-eluting stents coated with P2Y12 receptor antagonist compound” (Inspire Pharmaceuticals, Inc., priority 2000, dated 2008)", "key": {"[1]": {"system": "platelets (ADP-induced aggregation)", "assay": "Inhibition of ADP-induced platelet aggregation at 100 μM (FIG. 1)", "type": "cell-based, human", "conditions": "100 μM compound", "protocol": "(§1) Blood was collected from healthy volunteers into syringes containing ⅙ final blood volume of anti-coagulant ACD (65 mM citric acid, 85 mM sodium citrate, 110 mM dextrose) for washed platelet (WP) preparation or into a syringe containing a final concentration of 10 units/mL heparin or 300 μM PPACK for whole blood (WB) assays. The blood collected for whole blood assays was maintained at room temperature and immediately tested as described below. The blood collected for WP was centrifuged at 180 g for 15 minutes and the supernatant (platelet rich plasma) was removed. The platelet rich plasma was centrifuged and the platelets were pelleted and resuspended in a buffer consisting of (mM): NaCl (137), KCl (2.7), CaCl2 (2) MgCl2 (1), NaH2PO4 (3), Glucose (5), HEPES (10), pH 7.4, 0.2% BSA. These centrifugations and washes were repeated twice following by resuspension in the media described above containing 0.25 U apyrase/mL. Platelet aggregation was measured using the optical mode of a CHRONOLOG® aggregometer (Havertown, Pa.). Five hundred μl of platelet suspension containing 1 mg/mL Fibrinogen were warmed to 37° C. and stirred at 1000 rpm. Indicated concentrations of ADP were added to the sample and aggregation was monitored for 8 minutes. The effect of the compounds described in this invention were studied following the same protocol with the exception that the inhibitor was incubated for 2-5 minutes prior to the addition of a maximally effective concentration of ADP. For whole blood aggregation, blood was diluted 1:1 with saline and then aggregation was performed in the same manner as described above using the impedance mode of the aggregometer. The potency of agonists and inhibitors of platelet aggregation was calculated from both, the rate of aggregation and the maximal extent of aggregation obtained for each determination by fitting the data to a four-parameter logistic equation using the […]® software package (GraphPad Corp. San Diego, Calif.).\nThe ability of P2Y12 antagonists to inhibit platelet aggregation is presented in this application as the percent inhibition of the aggregation induced by a maximally effective concentration of ADP. When a broad range of concentrations of P2Y12 antagonist was tested (usually from 1 nM to 100 μM), an IC50 value was also obtained.\nDifferent compounds were tested for their inhibition of ADP-induced aggregation and their IC50 according to the protocols in Example 19; the results are shown in FIG. 1. The bar graphs in the figure illustrate the effect of 100 μM concentration of the compound on ADP-induced platelet aggregation, and the data are expressed as % inhibition of the ADP response.\nWhere hydrogens are understood to be present, they have been omitted for the sake of simplicity. […]"}, "[2]": {"system": "whole blood platelet aggregation", "assay": "Ex-vivo whole blood platelet aggregation during and after continuous IV infusion in dogs", "set-up": "species or system beagle dogs", "protocol": "(§2) Two weeks prior to the study, beagle dogs were implanted with jugular catheters and vascular access ports. Groups of four dogs (two of each sex) were fitted with jackets and connected to ambulatory infusion pumps for drug administration.\n(§3) The day of the study, dogs were treated with a continuous infusion of different concentrations of test compound (usually between 0.1 and 1.5 mg/kg/h) for 90 minutes at a rate of 3 mL/kg/h. Approximately 30 minutes and 15 minutes prior to the start of infusion (predose samples), at different times during each infusion period (usually 10, 30, 60, and 90 minutes), and after the termination of the infusion (usually 5, 10, 20, 30, 40, 60, 120, and 240 minutes and 18, 20, 22, and 24 hours), blood was withdrawn from a cephalic vein catheter for the assessment of ex-vivo whole blood platelet aggregation assays and/or for bioanalytical determination of the plasma levels of the test compound. Platelet aggregation was estimated using the impedance mode of a CHRONOLOG® aggregometer as described in Example 24, and the plasma levels of the test compound were analyzed on an API 4000 LC/MS/MS system coupled with an Agilent 1100 series liquid chromatograph."}, "[3]": {"assay": "Plasma levels of test compound during and after IV infusion in dogs (LC/MS/MS)", "type": "in vivo", "conditions": "both sexes, beagle, dog, after the end of infusion, one-compartment model analysis, FIG. 5B", "protocol": "as §2, §3\nThe pharmacological effect of the administration of the test compound correlated closely with the plasma levels of the compound. […]"}, "[4]": {"molecular_target": "P2Y2 (Homo sapiens, UniProt P41231)", "sequence (P41231 whole entry, species assumed)": "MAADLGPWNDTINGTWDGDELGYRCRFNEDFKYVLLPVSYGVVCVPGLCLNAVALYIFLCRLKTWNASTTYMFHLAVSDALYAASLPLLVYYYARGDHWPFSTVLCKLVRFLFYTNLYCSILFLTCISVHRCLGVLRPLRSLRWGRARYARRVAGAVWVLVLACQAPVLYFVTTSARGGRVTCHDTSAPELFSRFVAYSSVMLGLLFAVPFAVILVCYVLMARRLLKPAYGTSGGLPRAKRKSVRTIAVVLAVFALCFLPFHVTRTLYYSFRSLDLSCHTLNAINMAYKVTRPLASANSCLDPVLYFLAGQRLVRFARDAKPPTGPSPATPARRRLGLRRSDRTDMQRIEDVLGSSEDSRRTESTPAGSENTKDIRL", "assay": "Calcium mobilization assay, P2Y2", "type": "cell-based", "set-up": "key: no response (NR)", "conditions": "activation of P2Y2 receptor"}, "[5]": {"system": "washed platelet (ADP-induced aggregation; P2Y12 receptor)", "assay": "ADP-induced platelet aggregation, washed platelet preparation", "type": "cell-based", "conditions": "Homo sapiens, inhibition of ADP-induced aggregation, washed platelets, average of at least two separate experiments", "protocol": "as §1, with “The blood collected for WP was centrifuged at 180 g for 15 minutes and the supernatant (platelet rich plasma) was removed. The platelet rich plasma was centrifuged and the platelets were pelleted and resuspended in a buffer consisting of (mM): NaCl (137), KCl (2.7), CaCl2 (2) MgCl2 (1), NaH2PO4 (3), Glucose (5), HEPES (10), pH 7.4, 0.2% BSA.” left out, “The effect of the compounds described in this invention were studied following the same protocol with the exception that the inhibitor was incubated for 2-5 minutes prior to the addition of a maximally effective concentration of ADP.” left out\nThe ability of P2Y12 antagonists to inhibit platelet aggregation is presented in this application as the percent inhibition of the aggregation induced by a maximally effective concentration of ADP.\nData presented are from the average of at least two separate experiments."}, "[6]": {"molecular_target": "P2Y6 (Homo sapiens, UniProt Q15077)", "sequence (Q15077 whole entry, species assumed)": "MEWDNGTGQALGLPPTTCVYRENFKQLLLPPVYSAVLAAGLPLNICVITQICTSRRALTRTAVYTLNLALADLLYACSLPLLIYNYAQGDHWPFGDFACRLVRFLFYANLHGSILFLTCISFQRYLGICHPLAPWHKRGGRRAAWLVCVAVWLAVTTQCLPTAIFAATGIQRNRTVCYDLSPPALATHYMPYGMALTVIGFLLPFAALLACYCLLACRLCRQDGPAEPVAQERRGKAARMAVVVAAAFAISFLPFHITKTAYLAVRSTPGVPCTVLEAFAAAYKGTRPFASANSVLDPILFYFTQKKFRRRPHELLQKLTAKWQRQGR", "assay": "Calcium mobilization assay, P2Y6", "type": "cell-based", "set-up": "key: no response (NR)", "conditions": "activation of P2Y6 receptor"}, "[7]": {"system": "systemic intravascular thromboembolism", "assay": "Thromboembolism-induced mortality (collagen and epinephrine) in mice", "type": "in vivo", "conditions": "25 mg/kg single IV bolus five minutes before 0.3 mg/kg collagen and 60 μg/kg epinephrine", "protocol": "Ten anesthetized mice were treated with vehicle (control) or with a single bolus intravenous administration of test compound (usually between 10 and 25 mg/kg). Five minutes after treatment, the animals were injected with a mixture of 0.3 mg/kg collagen and 60 μg/kg epinephrine. The survival time after the administration of collagen and epinephrine in animals pretreated with saline or 25 mg/kg of the test compound 2′3′-(trans)cinnamyl acetal-6-N-ethylurea AMP (compound 41), are shown using the Kaplan-Meier plot in FIG. 3. Ninety percent of the vehicle-pretreated animals died within 6 minutes after the IV injection of collagen and epinephrine."}, "[8]": {"molecular_target": "P2Y1 (Homo sapiens, UniProt P47900)", "sequence (P47900 whole entry)": "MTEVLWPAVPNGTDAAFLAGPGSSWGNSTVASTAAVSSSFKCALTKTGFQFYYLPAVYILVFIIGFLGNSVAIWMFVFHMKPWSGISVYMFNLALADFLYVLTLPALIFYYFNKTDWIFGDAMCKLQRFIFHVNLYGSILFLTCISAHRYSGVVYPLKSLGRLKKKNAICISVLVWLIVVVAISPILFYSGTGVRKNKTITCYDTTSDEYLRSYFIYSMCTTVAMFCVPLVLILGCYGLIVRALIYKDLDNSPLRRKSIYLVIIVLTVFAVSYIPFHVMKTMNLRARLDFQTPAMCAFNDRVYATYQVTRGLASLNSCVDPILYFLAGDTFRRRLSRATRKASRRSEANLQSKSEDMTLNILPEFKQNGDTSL", "assay": "Calcium mobilization assay, P2Y1", "type": "cell-based", "set-up": "key: no response (NR)", "conditions": "activation of P2Y1 receptor"}, "[9]": {"system": "platelet aggregation (platelet rich plasma)", "assay": "Ex-vivo ADP-induced platelet aggregation after intravenous administration in mice", "protocol": "In order to evaluate the effects of inhibition of platelet aggregation in-vivo by the compounds described in this invention, experimental protocols similar to those described by Leon et al. (Circulation 103:718-723, 2001) were performed.\nAnesthetized mice were injected intravenously with either saline or with different doses of trans-2′,3′-cinnamyl acetal-6N-ethylurea adenosine 5′-monophosphate, bis sodium salt (Compound 41), usually between 1 and 100 μg/kg. Five minutes after the administration of the compound, 700 μL of blood were obtained from each animal. The blood of two animals was combined and immediately processed to obtain platelet rich plasma for the assessment of platelet aggregation stimulated by 1 and 5 μM ADP. Platelet aggregation was measured using optical aggregometry as described in Example 21.\nA key characteristic of the compounds described in this invention is the reversible nature of the inhibition of platelet aggregation. The model system described in Example 28 was also used to study the kinetics of in-vivo inhibition of platelet aggregation with selected compounds. Briefly, a maximally effective concentration of test compound was administered intravenously, and blood samples were obtained before and at different times (usually 0, 1, 5, 15 and 30 minutes) after the administration of trans-2′,3′-cinnamyl acetal-6N-ethylurea adenosine 5′-monophosphate, bis sodium salt (Compound 41). Blood samples were processed immediately and aggregation induced by 1 μM and 5 μM ADP was estimated as described in Example 31."}, "[10]": {"molecular_target": "P2Y4 (Homo sapiens, UniProt P51582)", "sequence (P51582 whole entry, species assumed)": "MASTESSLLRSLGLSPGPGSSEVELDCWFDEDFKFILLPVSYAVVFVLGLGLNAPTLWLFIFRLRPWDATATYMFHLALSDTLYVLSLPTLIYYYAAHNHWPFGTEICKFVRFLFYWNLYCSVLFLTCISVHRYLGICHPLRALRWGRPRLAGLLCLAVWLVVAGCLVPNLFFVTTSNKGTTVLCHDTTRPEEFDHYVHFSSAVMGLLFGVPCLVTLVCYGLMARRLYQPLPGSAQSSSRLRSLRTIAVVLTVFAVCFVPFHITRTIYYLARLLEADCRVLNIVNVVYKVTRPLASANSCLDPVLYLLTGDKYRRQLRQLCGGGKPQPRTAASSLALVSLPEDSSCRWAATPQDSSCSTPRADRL", "assay": "Calcium mobilization assay, P2Y4", "type": "cell-based", "set-up": "key: no response (NR)", "conditions": "activation of P2Y4 receptor"}}, "note": "Counter-ions that a name gives are not always drawn.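 For Calcium Mobilization P2Y1 in this document: test compound added first then a maximal dose of the cognate agonist.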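 For Calcium Mobilization P2Y2 in this document: test compound added first then a maximal dose of the cognate agonist.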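 For Calcium Mobilization P2Y4 in this document: test compound added first then a maximal dose of the cognate agonist.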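 For Calcium Mobilization P2Y6 in this document: test compound added first then a maximal dose of the cognate agonist.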", "data": [{"smiles": "O=c1ccn([C@@H]2O[C@H](COP(=O)(O)OP(=O)(O)OP(=O)(O)OP(=O)(O)OC[C@H]3O[C@@H](n4cnc5c(=O)[nH]cnc54)[C@H](O)[C@@H]3O)[C@@H](O)[C@H]2O)c(=O)[nH]1", "note": "[Ip4U]", "values": [{"measurement": "inhibition of ADP-induced aggregation", "setting": "[1]", "value": "do not inhibit"}]}, {"smiles": "CCNC(=O)Nc1ncnc2c1ncn2[C@@H]1O[C@H](COP(=O)(O)O)C2O[C@H](/C=C/c3ccccc3)OC21", "note": "(stereo in doubt) [Compound 41, Phosphoric acid mono-{6-[6-(3-ethyl-ureido)-purin-9-yl]-2-styryl-tetrahydro-furo[3,4-d][1,3]dioxol-4-ylmethyl} ester bis sodium salt]", "values": [{"measurement": "restoration of platelet aggregation following termination of infusion", "setting": "[2]; after end of IV infusion, FIG. 5A", "value": "nearly complete restoration of platelet aggregation within an hour"}, {"measurement": "time at which the pharmacodynamic effect reached steady state", "setting": "[2]; continuous IV infusion, FIG. 5A (0.3 mg/kg/h)", "value": "≤ 30", "unit": "min"}, {"measurement": "infusion rate giving the maximal inhibitory effect on platelet aggregation", "setting": "[2]; continuous intravenous infusion", "value": 0.3, "unit": "mg/kg/h"}, {"measurement": "inhibition of platelet aggregation, dose dependence", "setting": "[2]; continuous intravenous infusion for 90 minutes", "value": "dose-dependent inhibition"}, {"measurement": "half-life", "setting": "[3]", "value": "~7", "unit": "min"}, {"measurement": "Calcium Mobilization P2Y2", "setting": "[4]", "value": "NR"}, {"measurement": "IC50", "setting": "[5]", "value": "0.013 ± 0.002", "unit": "µM"}, {"measurement": "Calcium Mobilization P2Y6", "setting": "[6]", "value": "NR"}, {"measurement": "mortality resulting from systemic intravascular thromboembolism", "setting": "[7]", "value": 20, "unit": "%"}, {"measurement": "Calcium Mobilization P2Y1", "setting": "[8]", "value": "NR"}, {"measurement": "inhibition of ADP-induced platelet aggregation five minutes after administration", "setting": "[9]; intravenous maximally effective concentration, 1 μM and 5 μM ADP, 5 minutes", "value": "Complete inhibition"}, {"measurement": "aggregation response to ADP by 30 minutes after administration", "setting": "[9]; intravenous maximally effective concentration, 1 μM and 5 μM ADP, 30 minutes", "value": "returned to values similar to those observed in control animals"}, {"measurement": "inhibition of platelet aggregation, dose dependence", "setting": "[9]; intravenous, blood taken five minutes after administration, 1 and 5 μM ADP", "value": "dose-dependent inhibition"}, {"measurement": "Calcium Mobilization P2Y4", "setting": "[10]", "value": "NR"}]}, {"smiles": "O=c1ccn([C@@H]2O[C@H](COP(=O)(O)OP(=O)(O)OP(=O)(O)OP(=O)(O)OC[C@H]3O[C@@H](n4ccc(=O)[nH]c4=O)[C@H](O)[C@@H]3O)[C@@H](O)[C@H]2O)c(=O)[nH]1", "note": "[Up4U]", "values": [{"measurement": "inhibition of ADP-induced aggregation", "setting": "[1]", "value": "do not inhibit"}]}, {"smiles": "Nc1ccn([C@@H]2O[C@H](COP(=O)(O)OP(=O)(O)OP(=O)(O)OP(=O)(O)OC[C@H]3O[C@@H](n4ccc(=O)[nH]c4=O)[C@H](O)[C@@H]3O)[C@@H](O)[C@H]2O)c(=O)n1", "note": "[Cp4U, P^1-(cytidine 5′-)-P^4-(uridine 5′-) tetraphosphate]", "values": [{"measurement": "inhibition of ADP-induced aggregation", "setting": "[1]", "value": "do not inhibit"}]}, {"smiles": "O=c1ccn([C@@H]2O[C@H](COP(=O)(O)OP(=O)(O)OP(=O)(O)OC[C@@H]3O[C@@H](n4ccc(=O)[nH]c4=O)C(O)[C@@H]3O)[C@H](O)C2O)c(=O)[nH]1", "note": "(stereo partly drawn) [Up3U, P^1,P^3-Di(uridine 5′-) triphosphate]", "values": [{"measurement": "inhibition of ADP-induced aggregation", "setting": "[1]", "value": "do not inhibit"}]}]}
